Tests used:
Format in all cases: in vivo
[1] = test system: TREM-1; assay: Rat model of myocardial ischemia-reperfusion, physiologic parameters and micro-TEP imaging
Procedure: Adult male Wistar rats (360-380 g) were used. All rats were anaesthetized with ketamine (100 mg/kg, intramuscularly) and mechanically ventilated. After a left thoracotomy, the left coronary artery was identified and ligated with a 6-0 prolene surgical suture. LAD occlusion was confirmed by a change in myocardial color from red to white in the ischemia area (Left ventricle). The chest was closed and the skin was sutured with 6-0 silk. The animals returned to their cage where they were supervised until their complete recovery. The postoperative mortality rate of all rats was 20%.
After surgical LAD occlusion, importance of ischemic area was evaluated by micro-TEP imaging. Animals were then randomized to receive peptide (5 mg/kg) every 24 h for 5 days or placebo (vehicle).
A further evaluation was performed at 6 weeks by micro-TEP imaging and conductance catheter (Millar) in order to study the treatment effect on myocardial remodeling and myocardial function.
Animals received same surgery than in permanent ischemia, but with reperfusion of ischemic area by release of the LAD ligation after 60 minutes of ischemia. The same protocol as described above was then applied.
In all animals, approximately 70 MBq of ^18F-FDG (in a 0.3-0.5 ml volume) was injected intravenously and under a short anaesthesia (1.5-2.5% of isoflurane inhalation) 60 min prior to initiating PET recording. Recording was acquired in list mode under continuous anaesthesia by isoflurane, using a dedicated small animal PET system (Inveon, Siemens, Knoxville, Tenn., USA). The animals were positioned in the prone position and placed on a heating pad to maintain a body temperature within the normal range. The animals were connected to a standard ECG monitor by three electrodes placed on the inner surfaces of limb extremities. Recording times were 20 min for 18F emission and 6 min for 57Co transmission. The coincidence timing window was set to 3.4 ns and the energy window between 350 and 650 keV. Images were reconstructed in 16 cardiac intervals, providing a temporal resolution of 11-15 ms for common heart rate values. Under these conditions, the axial spatial resolution was less than 1.5 mm. In addition, on LV rat phantoms obtained by a stereolithography process, a precise determination of the actual cavity volumes was provided by FDG PET images above the level of 100 μl corresponding to the lower limit for the LV endsystolic volume in adult.
To investigate the role of TREM-1- and TLT-1-derived peptides in a more relevant model of MI, we performed a transient coronary artery ligation (ischemia-reperfusion model: IR) in rats. After randomisation, animals were then imaged under anaesthesia (micro-TEP) and administered with TREM-1- and TLT-1-derived peptides (3 mg/kg daily for 5 days i.p.) or LR12-scrambled peptide. Imaging was then repeated at 6 weeks before we studied cardiac function by using a conductance catheter (Millar).

[2] = target: T1, TREM-1 (Mus musculus, UniProt Q9JKE2); assay: Mouse model of myocardial infarction, survival; details: 100 μg daily for 5 days i.p., beginning 60 min after ligation; Log-Rank p<0.01
T1 construct: endogenous in cells; host or cells: living mice (C57BL, Balb/c, ApoE-/-), in vivo
T1 sequence (Q9JKE2 21-230): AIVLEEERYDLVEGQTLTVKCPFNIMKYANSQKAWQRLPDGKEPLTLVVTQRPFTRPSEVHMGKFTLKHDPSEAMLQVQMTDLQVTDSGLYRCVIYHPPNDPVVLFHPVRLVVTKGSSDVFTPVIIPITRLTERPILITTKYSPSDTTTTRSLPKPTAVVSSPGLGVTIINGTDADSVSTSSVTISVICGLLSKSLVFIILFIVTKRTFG
Procedure: Adult male Balb/c mice (20-23 g) were subjected to myocardial ischemia and were randomly grouped (n=10-15 per group) to receive repeated TREM-1- and TLT-1-derived peptides (100 μg in 0.2 mL NaCl 0.9% once a day for 5 days), scrambled-LR12 (100 μg in 0.2 mL NaCl 0.9% once a day for 5 days), or 10 μg anti-TREM-1 mAb in 0.2 mL NaCl 0.9% i.p. injections. Survival was monitored over 1 wk and analyzed by Log Rank test. (There were no deaths after the 5th day). Data are representative of at least 15 different experiments.
All procedures were performed on mice male C57BL/C ranging in age from 6-8 weeks. Mice were anesthetized by an intraperitoneal injection of xylazine (60 mg/kg) and fixed in supine position. The trachea was intubated and ventilated (the tidal volume was 200 μl/25 g and the respiratory rate was 120 breaths/min). After a left thoracotomy, the left coronary artery was identified and ligated with an 8-0 prolene surgical suture at 1.0 mm distal from tip of the left auricle. LAD occlusion was confirmed by a change in myocardial color from red to white in the ischemia area (Left ventricle). The chest was closed and the skin was sutured with 6-0 silk. […]
Mice were monitored after surgery for mortality. Mice were randomized to receive or not peptides (daily ip injection for 5 days, 5 mg/kg) and monitored for survival. […]

[3] = target: T1, TREM-1; assay: Atherosclerosis in ApoE-/- mouse on fat diet; details: apoE-/- mice, daily i.p. 100 μg/day, 4 weeks; vehicle 146736
Procedure: 12-week old male ApoE−/− mice were put on a fat diet (lipids 15%, cholesterol 1.25%, no cholate) and were treated by daily intraperitoneal injection of peptides (100 μg/day) or PBS. After 4 weeks of fat diet, mice were sacrificed for analysis.
Atherosclerotic plaques were stained using Red Oil and quantified in the aortic sinus. Using immunofluorescent staining and immunohistochemistry, we analyzed plaque composition. Finally, we explored the effects of peptide's treatment on monocyte recruitment in the atherosclerotic plaques using the pulse staining technique developed by Potteaux et al. Briefly, monocytes were labelled in vivo by retro-orbital i.v. injection of 1 μm Fluoresbrite green fluorescent plain microspheres diluted 1:4 in sterile PBS [Potteaux et al, 2011]. Fluorescent beads count in the lesions reflects monocyte recruitment.

Sequence: LQEEDAGEYGCM (listed as Homo sapiens) [TLT1-LR12]
- Body weight ([1]; Baseline): 391 ± 9 g
- EDV ([1]; Baseline): 511 ± 55 µL
- EF ([1]; Baseline): 47 ± 6%
- ESV ([1]; Baseline): 251 ± 75 µL
- Heart rate ([1]; Baseline): 343 ± 43 bpm
- MI Areas ([1]; Baseline): 41 ± 20 % of LV
- Systolic blood pressure ([1]; Baseline): 134 ± 2 mmHg
- Body weight ([1]; Six weeks): 439 ± 12 g
- Body weight, difference with baseline ([1]; Six weeks): 48 ± 10 g
- EDV ([1]; Six weeks): 620 ± 34 µL
- EDV, difference with baseline ([1]; Six weeks): 109 ± 55 µL
- EF ([1]; Six weeks): 56 ± 5%
- EF, difference with baseline ([1]; Six weeks): 9 ± 7%
- ESV ([1]; Six weeks): 273 ± 47 µL
- ESV, difference with baseline ([1]; Six weeks): 22 ± 18 µL
- Heart rate ([1]; Six weeks): 370 ± 25 bpm
- Heart rate, difference with baseline ([1]; Six weeks): 27 ± 22 bpm
- MI Areas ([1]; Six weeks): 3 ± 9 % of LV
- MI Areas, difference with baseline ([1]; Six weeks): −38 ± 8 % of LV
- Systolic blood pressure ([1]; Six weeks): 167 ± 6 mmHg
- Systolic blood pressure, difference with baseline ([1]; Six weeks): 33 ± 6 mmHg
- survival after permanent coronary artery ligation [2]: All but 1 LR12-treated animals survived
- atherosclerotic lesion size in the aortic sinus (Red Oil staining) [3]: 103318 μm^2

From patent publication US9657081B2, “Inhibiting peptides derived from triggering receptor expressed on myeloid cells-1 (TREM-1) TREM-like transcript 1 (TLT-1) for treatment of cardiovascular diseases” (INSERM (Institut National de la Sante et de la Recherche …, priority 2013, dated 2017)
